Measured values published in ChEMBL document CHEMBL5046253, “Synthesis and bioevaluation of diaryl urea derivatives as potential antitumor agents for the treatment of human colorectal cancer” (Eur J Med Chem, 2022).

Assays:
[1] = AUC (0 to infinity) in Sprague-Dawley rat at 20 mg/kg, iv by LC-MS/MS analysis; type: ADME, organism-based; parameters: route intravenous, time infinity, dose 20 mg/kg; conditions: in vivo
[2] = biological target: Phosphatidylinositol 4,5-bisphosphate 3-kinase catalytic subunit beta isoform (Homo sapiens, UniProt P42338); test: Inhibition of PI3Kbeta (unknown origin) using PIP2 as substrate in presence of ATP incubated for 60 mins by ADP-glo based luminescence assay
[3] = biological target: T1, Phosphatidylinositol 4,5-bisphosphate 3-kinase catalytic subunit delta isoform (Homo sapiens, UniProt O00329); test: Inhibition of PI3Kdelta (unknown origin) using PIP2 as substrate in presence of ATP incubated for 60 mins by ADP-glo based luminescence assay
T1 sequence (O00329 whole entry): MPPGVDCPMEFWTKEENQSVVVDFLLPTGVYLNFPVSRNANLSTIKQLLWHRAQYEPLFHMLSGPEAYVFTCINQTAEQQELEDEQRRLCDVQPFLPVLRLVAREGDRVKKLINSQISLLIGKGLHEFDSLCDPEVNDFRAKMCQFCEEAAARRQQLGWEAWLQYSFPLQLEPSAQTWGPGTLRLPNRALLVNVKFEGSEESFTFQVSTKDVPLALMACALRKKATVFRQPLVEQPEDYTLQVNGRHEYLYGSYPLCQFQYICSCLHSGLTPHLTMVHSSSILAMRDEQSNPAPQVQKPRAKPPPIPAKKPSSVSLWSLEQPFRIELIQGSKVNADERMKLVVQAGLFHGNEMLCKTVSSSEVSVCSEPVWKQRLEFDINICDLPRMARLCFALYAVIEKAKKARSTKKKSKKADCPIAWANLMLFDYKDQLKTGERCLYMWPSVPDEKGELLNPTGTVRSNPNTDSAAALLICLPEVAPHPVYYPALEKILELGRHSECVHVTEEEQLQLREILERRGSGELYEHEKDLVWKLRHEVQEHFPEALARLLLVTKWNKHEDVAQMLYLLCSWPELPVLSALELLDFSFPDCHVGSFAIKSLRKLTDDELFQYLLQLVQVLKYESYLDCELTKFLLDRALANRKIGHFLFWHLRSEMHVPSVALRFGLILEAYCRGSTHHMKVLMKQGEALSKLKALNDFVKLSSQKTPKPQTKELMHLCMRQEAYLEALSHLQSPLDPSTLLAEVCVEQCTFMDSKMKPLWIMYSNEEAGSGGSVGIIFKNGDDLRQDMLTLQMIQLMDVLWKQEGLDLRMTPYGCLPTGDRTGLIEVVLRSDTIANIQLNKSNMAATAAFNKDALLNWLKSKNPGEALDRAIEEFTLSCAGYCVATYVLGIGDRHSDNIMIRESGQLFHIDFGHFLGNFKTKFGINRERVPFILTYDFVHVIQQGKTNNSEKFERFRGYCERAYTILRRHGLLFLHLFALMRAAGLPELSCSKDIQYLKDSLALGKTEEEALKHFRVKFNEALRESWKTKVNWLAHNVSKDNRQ

Cytochrome P450 2C19 = Cytochrome P450 2C19 (Homo sapiens, UniProt P33261); test: Inhibition of CYP2C19 (unknown origin); type: ADME
Lung = test: Toxicity in BALB/c mouse assessed as effect on lungs by H and E staining based histological analysis; type: tissue-based; conditions: in vivo
HCT-116 [4] = test: Induction of apoptosis in human HCT-116 cells assessed as necrotic cells at 5 uM incubated for 24 hrs by annexin V FITC/propidium iodide staining based flow cytometry (reference value: 0.9 %); type: functional
HCT-116 [5] = test: Antiproliferative activity against human HCT-116 cells assessed as reduction in cell viability incubated for 48 hrs by MTT assay; type: functional, cell-based; conditions: HCT-116, 48 h
L02 = test: Antiproliferative activity against human L02 cells assessed as reduction in cell viability incubated for 48 hrs by MTT assay; type: cell-based; conditions: L02, 48 h
[6] = Stability of the compound in simulated gastrointestinal fluid; type: ADME
HCT-116 [7] = test: Induction of cell cycle arrest in human HCT-116 cells assessed as increase in accumulation at G2/M phase at 1.5 to 6 uM after 24 hrs by propidium iodide staining based flow cytometric analysis (reference value: 19.1 %); type: functional; conditions: dose 1.5-6 µM
A-431 = test: Antiproliferative activity against human A431 cells harboring wild type EGFR mutant assessed as reduction in cell viability incubated for 72 hrs by celltiter-glo assay; type: functional, cell-based; conditions: A-431, 72 h
MCF7 = test: Antiproliferative activity against human MCF7 cells assessed as reduction in cell viability incubated for 48 hrs by MTT assay; type: functional, cell-based; conditions: MCF7, 48 h
HepG2 = test: Antiproliferative activity against human HepG2 cells assessed as reduction in cell viability incubated for 48 hrs by MTT assay; type: functional, cell-based; conditions: HepG2, 48 h
[8] = biological target: Serine/threonine-protein kinase mTOR (Homo sapiens, UniProt P42345); test: Inhibition of mTOR (unknown origin) using U-Light-4E-BP1 peptide as a substrate in presence of ATP incubated for 45 mins by Lance ultra assay
MDA-MB-231 = test: Antiproliferative activity against human MDA-MB-231 cells assessed as reduction in cell viability incubated for 48 hrs by MTT assay; type: functional, cell-based; conditions: MDA-MB-231, 48 h
HCT-116 [9] = test: Induction of apoptosis in human HCT-116 cells assessed as early apoptotic cells at 10 uM incubated for 24 hrs by annexin V FITC/propidium iodide staining based flow cytometry (reference value: 11.1 %); type: functional
HCT-116 [10] = test: Induction of apoptosis in human HCT-116 cells assessed as viable cells at 10 uM incubated for 24 hrs by annexin V FITC/propidium iodide staining based flow cytometry (reference value: 81.2 %); type: functional; conditions: read-out: Activity
HCT-116 [11] = test: Induction of apoptosis in human HCT-116 cells assessed as necrotic cells at 10 uM incubated for 24 hrs by annexin V FITC/propidium iodide staining based flow cytometry (reference value: 0.9 %); type: functional
HCT-116 [12] = test: Induction of apoptosis in human HCT-116 cells assessed as viable cells at 2.5 uM incubated for 24 hrs by annexin V FITC/propidium iodide staining based flow cytometry (reference value: 81.2 %); type: functional; conditions: read-out: Activity
HCT-116 [13] = test: Induction of apoptosis in human HCT-116 cells assessed as late apoptotic cells at 5 uM incubated for 24 hrs by annexin V FITC/propidium iodide staining based flow cytometry (reference value: 6.8 %); type: functional
[14] = MRT in Sprague-Dawley rat at 20 mg/kg, iv by LC-MS/MS analysis; type: ADME, organism-based; conditions: in vivo
HCT-116 [15] = test: Inhibition of cell migration in human HCT-116 cells at 3 uM measured after 24 hrs by wound healing assay (reference value: 31.16 %); type: functional
HeLa = test: Antiproliferative activity against human HeLa cells assessed as reduction in cell viability incubated for 48 hrs by MTT assay; type: functional, cell-based
[16] = biological target: Phosphatidylinositol 4,5-bisphosphate 3-kinase catalytic subunit gamma isoform (Homo sapiens, UniProt P48736); test: Inhibition of PI3Kgamma (unknown origin) using PIP2 as substrate in presence of ATP incubated for 60 mins by ADP-glo based luminescence assay
HCT-116 [17] = test: Induction of apoptosis in human HCT-116 cells assessed as late apoptotic cells at 10 uM incubated for 24 hrs by annexin V FITC/propidium iodide staining based flow cytometry (reference value: 6.8 %); type: functional

Chain of Phosphatidylinositol 4,5-bisphosphate 3-kinase catalytic subunit beta isoform (P42338 whole entry, canonical isoform): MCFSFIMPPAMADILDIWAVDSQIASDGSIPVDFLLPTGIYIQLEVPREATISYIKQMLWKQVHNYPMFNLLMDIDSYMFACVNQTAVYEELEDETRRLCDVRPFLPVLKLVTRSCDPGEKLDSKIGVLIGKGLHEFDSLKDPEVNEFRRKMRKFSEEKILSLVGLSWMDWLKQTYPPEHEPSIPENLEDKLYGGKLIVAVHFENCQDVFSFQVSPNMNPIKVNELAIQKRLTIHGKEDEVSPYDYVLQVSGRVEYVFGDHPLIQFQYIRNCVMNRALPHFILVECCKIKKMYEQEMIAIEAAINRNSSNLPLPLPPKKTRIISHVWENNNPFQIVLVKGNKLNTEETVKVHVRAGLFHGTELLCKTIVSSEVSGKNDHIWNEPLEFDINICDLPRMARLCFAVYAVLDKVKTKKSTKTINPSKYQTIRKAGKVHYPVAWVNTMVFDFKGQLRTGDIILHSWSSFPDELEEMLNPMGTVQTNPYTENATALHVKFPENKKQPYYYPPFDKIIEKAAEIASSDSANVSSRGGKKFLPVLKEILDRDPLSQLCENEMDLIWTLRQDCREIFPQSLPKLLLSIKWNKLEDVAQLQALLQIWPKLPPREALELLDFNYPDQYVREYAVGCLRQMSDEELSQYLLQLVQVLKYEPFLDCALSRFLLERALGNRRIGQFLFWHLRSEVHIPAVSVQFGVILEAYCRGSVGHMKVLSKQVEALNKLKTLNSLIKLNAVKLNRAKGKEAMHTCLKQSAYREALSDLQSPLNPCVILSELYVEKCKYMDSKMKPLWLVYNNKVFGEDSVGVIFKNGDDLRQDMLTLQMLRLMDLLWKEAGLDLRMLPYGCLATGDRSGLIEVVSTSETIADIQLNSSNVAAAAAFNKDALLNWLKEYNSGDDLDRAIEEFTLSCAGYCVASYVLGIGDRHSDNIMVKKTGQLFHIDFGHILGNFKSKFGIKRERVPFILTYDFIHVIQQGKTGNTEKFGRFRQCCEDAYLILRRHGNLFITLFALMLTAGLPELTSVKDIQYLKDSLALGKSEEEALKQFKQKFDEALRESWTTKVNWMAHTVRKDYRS
Chain of Phosphatidylinositol 4,5-bisphosphate 3-kinase catalytic subunit gamma isoform (P48736 whole entry, canonical isoform): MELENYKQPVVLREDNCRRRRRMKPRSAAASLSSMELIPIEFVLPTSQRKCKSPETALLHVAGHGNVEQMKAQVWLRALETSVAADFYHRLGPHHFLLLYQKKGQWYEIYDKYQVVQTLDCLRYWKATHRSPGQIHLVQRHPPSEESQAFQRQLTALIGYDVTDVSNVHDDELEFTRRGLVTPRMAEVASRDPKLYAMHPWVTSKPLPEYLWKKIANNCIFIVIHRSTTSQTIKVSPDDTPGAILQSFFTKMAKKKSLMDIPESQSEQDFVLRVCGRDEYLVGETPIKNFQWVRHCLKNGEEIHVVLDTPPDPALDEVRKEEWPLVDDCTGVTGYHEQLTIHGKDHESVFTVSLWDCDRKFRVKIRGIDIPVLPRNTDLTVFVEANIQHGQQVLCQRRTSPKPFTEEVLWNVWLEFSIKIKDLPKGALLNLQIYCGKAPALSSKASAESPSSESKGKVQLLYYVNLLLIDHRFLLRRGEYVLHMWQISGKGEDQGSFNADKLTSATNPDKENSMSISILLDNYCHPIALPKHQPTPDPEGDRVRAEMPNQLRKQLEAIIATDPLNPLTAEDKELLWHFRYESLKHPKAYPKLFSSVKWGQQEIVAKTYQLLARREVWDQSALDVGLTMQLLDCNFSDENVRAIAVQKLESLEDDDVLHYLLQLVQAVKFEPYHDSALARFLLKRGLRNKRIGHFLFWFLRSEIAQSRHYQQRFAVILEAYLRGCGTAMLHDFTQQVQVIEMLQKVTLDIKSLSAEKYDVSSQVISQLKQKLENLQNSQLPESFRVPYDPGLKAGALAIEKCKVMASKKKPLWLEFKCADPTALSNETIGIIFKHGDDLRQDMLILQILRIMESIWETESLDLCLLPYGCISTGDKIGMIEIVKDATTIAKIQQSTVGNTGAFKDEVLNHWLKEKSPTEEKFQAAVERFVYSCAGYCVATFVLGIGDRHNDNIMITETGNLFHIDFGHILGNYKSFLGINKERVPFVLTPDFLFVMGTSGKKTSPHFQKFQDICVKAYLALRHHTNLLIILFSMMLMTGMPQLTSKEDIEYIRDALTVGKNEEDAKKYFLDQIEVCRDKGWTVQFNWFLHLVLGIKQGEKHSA
Chain of Cytochrome P450 2C19 (P33261 whole entry): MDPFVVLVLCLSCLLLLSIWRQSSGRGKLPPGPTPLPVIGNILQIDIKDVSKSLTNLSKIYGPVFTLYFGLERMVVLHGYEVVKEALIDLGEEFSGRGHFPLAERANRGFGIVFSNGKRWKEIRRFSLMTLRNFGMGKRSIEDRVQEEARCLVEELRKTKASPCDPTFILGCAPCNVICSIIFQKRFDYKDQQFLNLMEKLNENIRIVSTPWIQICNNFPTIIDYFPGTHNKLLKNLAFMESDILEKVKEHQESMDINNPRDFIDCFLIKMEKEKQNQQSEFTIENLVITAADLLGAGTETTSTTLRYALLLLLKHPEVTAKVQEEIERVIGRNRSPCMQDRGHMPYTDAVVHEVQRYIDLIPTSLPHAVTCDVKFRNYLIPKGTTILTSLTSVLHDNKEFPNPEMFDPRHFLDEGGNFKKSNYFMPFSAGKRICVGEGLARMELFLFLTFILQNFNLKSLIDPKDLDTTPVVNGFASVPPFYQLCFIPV

NC(=O)[C@@H]1CCCN1C(=O)c1ccc(NC(=O)Nc2ccc(-c3nc(N4CCOCC4)nc(N4CCOCC4)n3)cc2)cc1
AUC(0-inf) [1]: 30600 ng·h/mL
IC50 [2]: 4.3 nM
IC50 [3]: 27.4 nM
IC50 (Cytochrome P450 2C19): > 50000 nM
Activity (Lung): Non-Toxic
Activity (HCT-116 [4]): 1.79%
IC50 (HCT-116 [5]): 110 nM
IC50 (L02): > 100000 nM
Stability [6]: Stable
Activity (HCT-116 [7]): 22.2%
IC50 (A-431): 218 nM
IC50 (MCF7): 2220 nM
IC50 (HepG2): 15100 nM
IC50 [8]: 3.3 nM
IC50 (MDA-MB-231): 6480 nM
Activity (HCT-116 [9]): 24.9%
viability at 10 µM (HCT-116 [10]): 63.1%
Activity (HCT-116 [11]): 1.7%
viability at 2.5 µM (HCT-116 [12]): 58.7%
Activity (HCT-116 [13]): 9.71%
MRT [14]: 10.4 h
inhibition at 3 µM (HCT-116 [15]): 9.72%
IC50 (HeLa): 13400 nM
IC50 [16]: 8.7 nM
Activity (HCT-116 [17]): 10.3%
